{"source": "patent US20040235931A1", "about": "“Inhibition of herpes virus replication” (priority 2003, published 2004)", "key": {"HSV-1 [1]": {"test_system": "HSV-1", "test": "HSV-1 replication in Vero cells, plaque forming units (pfu) titration", "type": "cell-based, herpes simplex virus type 1 (HSV-1)", "experimental": "Cultures of African green monkey kidney cells (Vero) cells, obtained from the American Type Culture Collection, Rockville, Md., were grown to confluence in Medium 199 supplemented with 5% fetal bovine serum, 0.075% NaHCO3, and 50 μg/ml gentamycin sulfate in 25 cm^2 tissue culture flasks. Cells were infected with HSV-1 at a multiplicity of infection (moi) of one and incubated at room temperature for one hour to allow for virus attachment to and penetration of the cell. Under these conditions, approximately half of the cells are infected with virus. Thereafter, the cultures were rinsed three time with media and incubated in medium containing 133 μM, 267 μM, or 400 μM I3C prepared in 0.2% dimethyl-sulfoxide (DMSO). Controls were treated identically, but were incubated without the I3C.\nUpon addition of the medium to the cultures and at 24 hours time periods thereafter, i.e., 0 hours, 24 hours, 48 hours, and 72 hours after addition of the drug, cells and medium were frozen at −70° C. Samples were then thawed, sonicated and titrated on Vero cells to determine the number of plaque forming units (pfu's) of virus produced by each culture.\nVero cell cultures were infected with HSV-1 as described above in Example 1 except that the cells were treated with 267 μM of I3C for 6, 12, or 24 hours prior to infection. Cells were infected with HSV-1 at an moi of 1 for 1 hour. Following removal of the unabsorbed virus, the infected cells were incubated in media containing 0.2% DMSO (control cells) or in media containing 267 μM of I3C (test cells) At 24, 48, and 72 hours after infection, the number of pfu's present in the cells and medium of the I3C -treated cultures was determined."}, "HSV-1 [2]": {"test_system": "HSV-1", "test": "HSV-1 replication in MRC-5 cells, pfu determination", "type": "cell-based, herpes simplex virus type 1 (HSV-1)", "conditions": "375 μM I3C, pretreatment for 24 or 36 hours prior to infection", "experimental": "MRC-5 cell cultures were infected with HSV-1 as described above in Example 1 except that the cells were treated with 375 μM of I3C following infection or for 12, 24, or 36 hours prior to infection. Cells were infected with HSV-1 at an moi of 1 for 1 hour. Following removal of the unabsorbed virus, the infected cells were incubated in media containing 0.2% DMSO (control cells) or in media containing 375 μM of I3C (test cells) At 24, 48, and 72 hours after infection, the number of pfu's present in the cells and medium of the cultures treated with I3C prior to or after infection was determined."}, "Vero cells": {"test_system": "Vero cells", "test": "MTT toxicity assay in Vero cells", "type": "cell-based, African green monkey", "conditions": "MTT, 24, 48 and 72 hours", "experimental": "(§1) African green monkey kidney cells (Vero) and Human neonatal lung fibroblasts cells (MRC-5) were obtained from the American Type Culture Collection, (Rockville, Md.). Vero cells were grown and maintained in Medium 199 supplemented with 5% fetal bovine serum, 0.075% NaHCO3 and 50 μg/ml gentamycin sulfates. MRC-5 cells were grown and maintained in Minimal Essential Medium with Earle's Balanced Salt Solution containing 2 mM L-glutamine supplemented with 10% fetal bovine serum, 0.lmM nonessential amino acids, 1 mM sodium pyruvate, 2% sodium bicarbonate and 50 μg/ml gentamycin sulfate.\n(§2) Cells were exposed to drug treated media of varying concentrations. […] I3C concentrations used in these studies were 50% and 75% of the CD50. Cells were seeded onto a 96 well at 10,000 cells/well and grown for 24 hours. Twelve different serially diluted concentrations of I3C were then incubated with the cells for 24, 48 and 72 hours and colorimetric readings were taken at these time points using the MTT reagent. Controls included in the 96 well plate were, media alone that contained no cells but with I3C, media with cells but no I3C, and plain media with 0.2% DMSO and no cells or drug. At 24, 48 and 72 hours a sigmoidal curve was generated for each time period and the data analyzed. Approximately, 500 μM was the concentration at which 50 percent of the cells died (CD50)."}, "HSV-2": {"test_system": "HSV-2", "test": "HSV-2 replication in Vero cells, pfu determination", "type": "cell-based, herpes simplex virus type 2 (HSV-2)", "conditions": "267 μM I3C", "experimental": "Vero cell cultures that had been pretreated with 267 μM of I3C were infected with HSV-2 at an moi of one for 1 hour At 24, 48, and 72 hours after infection, the number of pfu's present in the cells and medium of the I3C pre-treated cultures were determined. In addition, Vero cells were infected with HSV-2 at an moi of one for 1 hour, and thereafter the cultures were rinsed three time with media and incubated in medium containing 267 μM prepared in 0.2% dimethyl-sulfoxide (DMSO). At 24, 48, and 72 hours after infection, the number of pfu's present in the test cell pre-treated with I3C or treated with I3C post infection were determined."}, "HSV": {"test_system": "HSV", "test": "Direct inactivation of HSV by incubation with I3C, plaque assay", "conditions": "HSV mixed with I3C solution (267 μM); 1, 10, 30 and 60 minutes; compared to control virus", "experimental": "To determine if I3C could directly inactivate […] studies were done in which HSV was mixed with a solution of I3C (267 μM). Samples were taken at 1, 10, 30 and 60 minutes and the presence of infectious virus determined by the plaque assay."}, "[3]": {"test_system": "acyclovir resistant HSV-1", "test": "Acyclovir-resistant HSV-1 replication in Vero cells, pfu determination", "type": "cell-based, herpes simplex virus type 1 (HSV-1)", "experimental": "Vero cell cultures were infected with acyclovir resistant HSV-1 at an moi of one for one hour. Test cells were treated with 267 μM of I3C immediately after or 24 hours prior to infection. At 24, 48, and 72 hours after infection, the number of pfu's present in the test cell pre-treated with I3C or treated with I3C post infection were determined."}, "MRC-5 cells": {"test_system": "MRC-5 cells", "test": "MTT toxicity assay in MRC-5 cells", "type": "cell-based, Human", "conditions": "MTT, 24, 48 and 72 hours", "experimental": "as §1, §2"}}}
{"smiles": "OCc1c[nH]c2ccccc12", "note": "[I3C, indole-3-carbinol]", "values": [{"measurement": "inhibition of HSV replication", "setting": "HSV-1 [1]; 267 μM I3C, Vero cells incubated 12 to 24 hours prior to infection", "result": "dramatic and complete"}, {"measurement": "HSV replication", "setting": "HSV-1 [1]; 267 μM I3C, Vero cells pre-incubated 6 hours prior to infection, 24, 48, 72 hours after infection", "result": "proceeded at a reduced rate for 24 hours and then rapidly decreased at 48 and 72 hours to undetectable levels"}, {"measurement": "infectious HSV particles in cultures", "setting": "HSV-1 [1]; 400 μM I3C continuously post infection, Vero cells, by 72 hours", "result": "virtually undetectable"}, {"measurement": "inhibition of formation of infectious virus particles", "setting": "HSV-1 [1]; 400 μM I3C post infection, Vero cells, moi 1, at 24 hours", "result": "more than 99%"}, {"measurement": "dose dependence of inhibition of virus replication", "setting": "HSV-1 [1]; 133, 267, 400 μM I3C post infection, Vero cells", "result": "dose dependent"}, {"measurement": "HSV-1 replication in MRC5 cells", "setting": "HSV-1 [2]", "result": "inhibition of HSV-1 replication"}, {"measurement": "CD50 (concentration at which 50 percent of the cells died)", "setting": "Vero cells", "result": "~500", "unit": "µM"}, {"measurement": "HSV-2 replication, first 24 hours", "setting": "HSV-2; Vero cells treated 24 hours pre-infection", "result": "proceeded at a reduced rate for 24 hours"}, {"measurement": "HSV-2 replication, first 24 hours", "setting": "HSV-2; Vero cells treated post infection", "result": "proceeded at a reduced rate for 24 hours"}, {"measurement": "HSV-2 replication at 48 and 72 hours", "setting": "HSV-2; post-treated Vero cells", "result": "decreased at 48 and 72 hours"}, {"measurement": "HSV-2 replication at 48 and 72 hours", "setting": "HSV-2; pre-treated Vero cells", "result": "decreased at 48 and 72 hours"}, {"measurement": "direct inactivation of HSV", "setting": "HSV", "result": "no significant inactivation of HSV"}, {"measurement": "replication of acyclovir-resistant HSV", "setting": "[3]; 267 μM I3C post infection, Vero cells, 24, 48, 72 hours after infection", "result": "proceeded at a reduced rate for 24 hours and then rapidly decreased at 48 and 72 hours to undetectable levels"}, {"measurement": "inhibition of acyclovir-resistant HSV 1 replication", "setting": "[3]; 267 μM I3C, Vero cells incubated 24 hours prior to infection", "result": "dramatic and complete"}, {"measurement": "CD50 (concentration at which 50 percent of the cells died)", "setting": "MRC-5 cells", "result": "~500", "unit": "µM"}]}
